According to PubChem BioAssay (NCI):
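These data come from cells grown in 96-well plates and exposed to compound for 48 hours at five concentrations. Definition used: TGI = concentration required for complete inhibition of growth.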

Legend:
Experiment in all cases: NCI-60 cell line screen, 48 h
[1] = tested on: DMS 114 small cell lung
[2] = tested on: SF-539 CNS
[3] = tested on: HOP-62 NSCLC
[4] = tested on: M19-MEL melanoma
[5] = tested on: SK-MEL-28 melanoma
[6] = tested on: MALME-3M melanoma
[7] = tested on: SK-MEL-5 melanoma
[8] = tested on: LXFL 529 NSCLC
[9] = tested on: HCT-15 colon
[10] = tested on: HT29 colon
[11] = tested on: NCI-H522 lung
[12] = tested on: SK-MEL-2 melanoma
[13] = tested on: SR leukemia
[14] = tested on: COLO 205 colon
[15] = tested on: NCI-H460 lung
[16] = tested on: M14 melanoma
[17] = tested on: SF-295 CNS
[18] = tested on: K-562 leukemia
[19] = tested on: KM20L2 colon
[20] = tested on: 786-0 renal
[21] = tested on: MOLT-4 leukemia
[22] = tested on: HCT-116 colon
[23] = tested on: UACC-257 melanoma
[24] = tested on: HOP-92 NSCLC
[25] = tested on: RPMI-8226 leukemia
[26] = tested on: UO-31 renal
[27] = tested on: OVCAR-5 ovarian
[28] = tested on: CAKI-1 renal
[29] = tested on: SNB-75 CNS
[30] = tested on: TK-10 renal
[31] = tested on: A549 NSCLC
[32] = tested on: CCRF-CEM leukemia
[33] = tested on: XF 498 CNS
[34] = tested on: OVCAR-8 ovarian
[35] = tested on: NCI-H23 lung
[36] = tested on: NCI-H226 lung
[37] = tested on: ACHN renal
[38] = tested on: UACC-62 melanoma
[39] = tested on: OVCAR-4 ovarian
[40] = tested on: IGROV1 ovarian
[41] = tested on: KM12 colon
[42] = tested on: HCC-2998 colon
[43] = tested on: HL-60(TB) leukemia
[44] = tested on: SNB-19 CNS
[45] = tested on: DLD-1 colon
[46] = tested on: SF-268 CNS
[47] = tested on: OVCAR-3 ovarian
[48] = tested on: SW-620 colon
[49] = tested on: DMS 273 small cell lung
[50] = tested on: U251 CNS
[51] = tested on: SN12C renal
[52] = tested on: SK-OV-3 ovarian
[53] = tested on: EKVX NSCLC
[54] = tested on: LOX IMVI melanoma
[55] = tested on: RXF 393 renal
[56] = tested on: SNB-78 CNS
[57] = tested on: HOP-18 NSCLC
[58] = tested on: A498 renal

Measured: TGI

C=CCOC1CC(n2cnc3c(N)ncnc32)OC1CO (stereo unspecified)
not listed: [51] | [52] | [53] | [54] | [55] | [56] | [57] | [58]
> 100 µM: all other assays above

CN1C(=S)CSc2ccccc21
not listed: [17] | [38] | [42] | [57] | [58]
> 100 µM: all other assays above

COC(=O)C1CC(c2ccc(Cl)cc2)=NO1 (stereo unspecified)
not listed: [28] | [33] | [44] | [54] | [55]
> 100 µM: all other assays above
